Measurements: patent publication US20210045385A1, “PYRIDAZINONE-SUBSTITUTED KETOXIMES AS HERBICIDES” (FMC Corporation, priority 2018, published 2021)

Key:
Format in all cases: in vivo
[1] = tested on: Italian ryegrass (Lolium mutiflorum); experiment: Test C preemergence, visual plant response rating
Procedure, shortened: (§1)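 Compounds in a non-phytotoxic solvent with surfactant were applied as a directed soil spray preemergence or to 2–10 cm, one- to two-leaf plants postemergence, in loam–sand soil. After about 10 d in a greenhouse, injury was visually rated against untreated controls on a 0–100 scale (100 = complete control).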

[2] = tested on: barnyardgrass (Echinochloa crus-galli); experiment: Test C preemergence, visual plant response rating
Procedure, shortened: as §1

[3] = tested on: foxtail, giant (giant foxtail, Setaria faberi); experiment: Test C preemergence, visual plant response rating
Procedure, shortened: as §1

kochia (Bassia scoparia) [4] = experiment: Test C preemergence, visual plant response rating
Procedure, shortened: as §1

[5] = tested on: pigweed (Amaranthus retroflexus); experiment: Test C preemergence, visual plant response rating
Procedure, shortened: as §1

[6] = tested on: ragweed (common ragweed, Ambrosia artemisiifolia); experiment: Test C preemergence, visual plant response rating
Procedure, shortened: as §1

[7] = tested on: Italian ryegrass (Lolium mutiflorum); experiment: Test C postemergence, visual plant response rating
Procedure, shortened: as §1

[8] = tested on: barnyardgrass (Echinochloa crus-galli); experiment: Test C postemergence, visual plant response rating
Procedure, shortened: as §1

[9] = tested on: blackgrass (Alopecurus myosuroides); experiment: Test C postemergence, visual plant response rating
Procedure, shortened: as §1

corn (Zea mays) = experiment: Test C postemergence, visual plant response rating
Procedure, shortened: as §1

[10] = tested on: foxtail, giant (giant foxtail, Setaria faberi); experiment: Test C postemergence, visual plant response rating
Procedure, shortened: as §1

[11] = tested on: galium (catchweed bedstraw, Galium aparine); experiment: Test C postemergence, visual plant response rating
Procedure, shortened: as §1

kochia (Bassia scoparia) [12] = experiment: Test C postemergence, visual plant response rating
Procedure, shortened: as §1

[13] = tested on: pigweed (Amaranthus retroflexus); experiment: Test C postemergence, visual plant response rating
Procedure, shortened: as §1

[14] = tested on: ragweed (common ragweed, Ambrosia artemisiifolia); experiment: Test C postemergence, visual plant response rating
Procedure, shortened: as §1

[15] = tested on: wheat (Triticum aestivum); experiment: Test C postemergence, visual plant response rating
Procedure, shortened: as §1

[16] = tested on: barnyardgrass (Echinochloa crus-galli); experiment: Test D flooded paddy test, visual plant response rating; settings: 250 g ai/ha, scale 0 to 100 (0 no effect, 100 complete control), 13 to 15 d
Procedure, shortened: (§2)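 Plants were grown to the 2-leaf stage, pots flooded to 3 cm above soil, and compound applied directly into the paddy water, with the depth held throughout. After 13 to 15 d in a greenhouse, response was rated visually against untreated controls on a 0–100 scale (0 no effect, 100 complete control).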

[17] = tested on: duck salad (Heteranthera limosa); experiment: as above; settings: 250 g ai/ha, scale 0 to 100 (0 no effect, 100 complete control), 13 to 15 d
Procedure, shortened: as §2

rice (Oryza sativa) = experiment: as above; settings: 250 g ai/ha, scale 0 to 100 (0 no effect, 100 complete control), 13 to 15 d
Procedure, shortened: as §2

[18] = tested on: sedge umbrella (small-flower umbrella sedge, Cyperus difformis); experiment: as above; settings: 250 g ai/ha, scale 0 to 100 (0 no effect, 100 complete control), 13 to 15 d
Procedure, shortened: as §2

[19] = Test C, 31 g ai/ha, 0 is no effect, 100 is complete control
[20] = Test C, 125 g ai/ha, 0 is no effect, 100 is complete control
[21] = Test C, postemergence, 125 g ai/ha
[22] = Test C, postemergence, 1000 g ai/ha

Structure (SMILES): CO/N=C(\c1ccc(F)c(Cl)c1)c1c(O)c(C)nn(C)c1=O [Compound 219]
- Ryegrass, Italian plant response rating (0 to 100 scale) [1, 19]: 0
- Ryegrass, Italian plant response rating (0 to 100 scale) [1, 20]: 0
- Barnyardgrass plant response rating (0 to 100 scale) [2, 19]: 0
- Barnyardgrass plant response rating (0 to 100 scale) [2, 20]: 0
- Foxtail, Giant plant response rating (0 to 100 scale) [3, 19]: 0
- Foxtail, Giant plant response rating (0 to 100 scale) [3, 20]: 0
- Kochia plant response rating (0 to 100 scale) (kochia (Bassia scoparia) [4]; [19]): 0
- Kochia plant response rating (0 to 100 scale) (kochia (Bassia scoparia) [4]; [20]): 0
- Pigweed plant response rating (0 to 100 scale) [5, 19]: 0
- Pigweed plant response rating (0 to 100 scale) [5, 20]: 10
- Ragweed plant response rating (0 to 100 scale) [6, 19]: 0
- Ragweed plant response rating (0 to 100 scale) [6, 20]: 0
- Ryegrass, Italian plant response rating (0 to 100 scale) ([7]; Postemergence, 31 g ai/ha): 0
- Ryegrass, Italian plant response rating (0 to 100 scale) [7, 21]: 40
- Barnyardgrass plant response rating (0 to 100 scale) ([8]; Postemergence, 31 g ai/ha): 20
- Barnyardgrass plant response rating (0 to 100 scale) [8, 21]: 30
- Blackgrass plant response rating (0 to 100 scale) ([9]; Postemergence, 31 g ai/ha): 0
- Blackgrass plant response rating (0 to 100 scale) [9, 21]: 0
- Corn plant response rating (0 to 100 scale) (corn (Zea mays); Postemergence, 31 g ai/ha): 0
- Corn plant response rating (0 to 100 scale) (corn (Zea mays); [21]): 0
- Foxtail, Giant plant response rating (0 to 100 scale) ([10]; Postemergence, 31 g ai/ha): 0
- Foxtail, Giant plant response rating (0 to 100 scale) [10, 21]: 0
- Galium plant response rating (0 to 100 scale) ([11]; Postemergence, 31 g ai/ha): 50
- Galium plant response rating (0 to 100 scale) [11, 21]: 60
- Kochia plant response rating (0 to 100 scale) (kochia (Bassia scoparia) [12]; Postemergence, 31 g ai/ha): 10
- Kochia plant response rating (0 to 100 scale) (kochia (Bassia scoparia) [12]; [21]): 50
- Pigweed plant response rating (0 to 100 scale) ([13]; Postemergence, 31 g ai/ha): 20
- Pigweed plant response rating (0 to 100 scale) [13, 21]: 40
- Ragweed plant response rating (0 to 100 scale) ([14]; Postemergence, 31 g ai/ha): 0
- Ragweed plant response rating (0 to 100 scale) [14, 21]: 10
- Wheat plant response rating (0 to 100 scale) ([15]; Postemergence, 31 g ai/ha): 0
- Wheat plant response rating (0 to 100 scale) [15, 21]: 0
- Plant response rating, Barnyardgrass (Flood) [16]: 0
- Plant response rating, Ducksalad (Flood) [17]: 0
- Plant response rating, Rice (Flood) (rice (Oryza sativa)): 0
- Plant response rating, Sedge, Umbrella (Flood) [18]: 0

Structure (SMILES): C#CCO/N=C(/c1c(O)cnn(C)c1=O)c1cccc2ccccc12 [Compound 221]
- Ryegrass, Italian plant response rating (0 to 100 scale) ([1]; 1000 g ai/ha): 100
- Barnyardgrass plant response rating (0 to 100 scale) ([2]; 1000 g ai/ha): 30
- Foxtail, Giant plant response rating (0 to 100 scale) ([3]; 1000 g ai/ha): 100
- Kochia plant response rating (0 to 100 scale) (kochia (Bassia scoparia) [4]; 1000 g ai/ha): 60
- Pigweed plant response rating (0 to 100 scale) ([5]; 1000 g ai/ha): 100
- Ragweed plant response rating (0 to 100 scale) ([6]; 1000 g ai/ha): 80
- Ryegrass, Italian plant response rating (0 to 100 scale) [7, 22]: 100
- Barnyardgrass plant response rating (0 to 100 scale) [8, 22]: 70
- Blackgrass plant response rating (0 to 100 scale) [9, 22]: 90
- Corn plant response rating (0 to 100 scale) (corn (Zea mays); [22]): 20
- Foxtail, Giant plant response rating (0 to 100 scale) [10, 22]: 60
- Galium plant response rating (0 to 100 scale) [11, 22]: 100
- Kochia plant response rating (0 to 100 scale) (kochia (Bassia scoparia) [12]; [22]): 70
- Pigweed plant response rating (0 to 100 scale) [13, 22]: 90
- Ragweed plant response rating (0 to 100 scale) [14, 22]: 80
- Wheat plant response rating (0 to 100 scale) [15, 22]: 60
- Plant response rating, Barnyardgrass (Flood) [16]: 0
- Plant response rating, Ducksalad (Flood) [17]: 0
- Plant response rating, Rice (Flood) (rice (Oryza sativa)): 0
- Plant response rating, Sedge, Umbrella (Flood) [18]: 0
